Assay results reported in ChEMBL document CHEMBL3112450, “Synthesis and in vitro antitumor evaluation of primary amine substituted quinazoline linked benzimidazole” (Bioorg Med Chem Lett, 2014).

Key:
Type in all cases: functional
NCI-H226 = experiment: Cytotoxicity against human NCI-H226 cells assessed as growth inhibition at 10 uM after 48 hrs by SRB assay; details: NCI-H226, 48 h, read-out: GI
NCI-H23 = experiment: Cytotoxicity against human NCI-H23 cells assessed as growth inhibition at 10 uM after 48 hrs by SRB assay; details: NCI-H23, 48 h, read-out: GI
[1] = Cytotoxicity against human UACC257 cells after 48 hrs by SRB assay; details: UACC-257, 48 h
A549 [2] = experiment: Cytotoxicity against human A549 cells assessed as cell growth at 10^-6 M after 48 hrs by SRB assay; details: A549, 48 h, read-out: Activity
A549 [3] = experiment: Cytotoxicity against human A549 cells after 48 hrs by SRB assay; details: A549, 48 h
A549 [4] = experiment: Cytotoxicity against human A549 cells assessed as cell growth at 10^-7 M after 48 hrs by SRB assay; details: A549, 48 h, read-out: Activity
[5] = Cytotoxicity against human NCI-ADR-RES cells assessed as growth inhibition at 10 uM after 48 hrs by SRB assay; details: read-out: GI
BT-549 = experiment: Cytotoxicity against human BT549 cells assessed as growth inhibition at 10 uM after 48 hrs by SRB assay; details: BT-549, 48 h, read-out: GI
[6] = Cytotoxicity against human UACC257 cells assessed as cell growth at 10^-7 M after 48 hrs by SRB assay; details: UACC-257, 48 h, read-out: Activity
[7] = Cytotoxicity against human UACC257 cells assessed as cell growth at 10^-6 M after 48 hrs by SRB assay; details: UACC-257, 48 h, read-out: Activity
[8] = Cytotoxicity against human UACC257 cells assessed as cell growth at 10^-4 M after 48 hrs by SRB assay; details: UACC-257, 48 h, read-out: Activity
A549 [9] = experiment: Cytotoxicity against human A549 cells assessed as cell growth at 10^-4 M after 48 hrs by SRB assay; details: A549, 48 h, read-out: Activity
A549 [10] = experiment: Cytotoxicity against human A549 cells assessed as cell growth at 10^-8 M after 48 hrs by SRB assay; details: A549, 48 h, read-out: Activity
[11] = Cytotoxicity against human UACC257 cells assessed as cell growth at 10^-8 M after 48 hrs by SRB assay; details: UACC-257, 48 h, read-out: Activity
SNB-75 [12] = experiment: Cytotoxicity against human SNB75 cells assessed as cell growth at 10^-6 M after 48 hrs by SRB assay; details: SNB-75, 48 h, read-out: Activity
SNB-75 [13] = experiment: Cytotoxicity against human SNB75 cells assessed as cell growth at 10^-8 M after 48 hrs by SRB assay; details: SNB-75, 48 h, read-out: Activity
SNB-75 [14] = experiment: Cytotoxicity against human SNB75 cells assessed as cell growth at 10^-4 M after 48 hrs by SRB assay; details: SNB-75, 48 h, read-out: Activity
SNB-75 [15] = experiment: Cytotoxicity against human SNB75 cells assessed as cell growth at 10^-7 M after 48 hrs by SRB assay; details: SNB-75, 48 h, read-out: Activity
[16] = Cytotoxicity against human OVCAR4 cells assessed as growth inhibition at 10 uM after 48 hrs by SRB assay; details: OVCAR-4, 48 h, read-out: GI
HCT-116 = experiment: Cytotoxicity against human HCT116 cells assessed as growth inhibition at 10 uM after 48 hrs by SRB assay; details: HCT-116, 48 h, read-out: GI
[17] = Cytotoxicity against human Hs578T cells assessed as growth inhibition at 10 uM after 48 hrs by SRB assay; details: Hs-578T, read-out: GI
SK-MEL-5 = experiment: Cytotoxicity against human SK-MEL-5 cells assessed as growth inhibition at 10 uM after 48 hrs by SRB assay; details: SK-MEL-5, 48 h, read-out: GI
SW-620 = experiment: Cytotoxicity against human SW620 cells assessed as growth inhibition at 10 uM after 48 hrs by SRB assay; details: SW-620, 48 h, read-out: GI
SF-295 = experiment: Cytotoxicity against human SF295 cells assessed as growth inhibition at 10 uM after 48 hrs by SRB assay; details: SF-295, 48 h, read-out: GI
K562 = experiment: Cytotoxicity against human K562 cells assessed as growth inhibition at 10 uM after 48 hrs by SRB assay; details: K562, 48 h, read-out: GI
[18] = Cytotoxicity against human UO31 cells assessed as growth inhibition at 10 uM after 48 hrs by SRB assay; details: UO-31, 48 h, read-out: GI
MDA-MB-435 = experiment: Cytotoxicity against human MDA-MB-435 cells assessed as growth inhibition at 10 uM after 48 hrs by SRB assay; details: MDA-MB-435, 48 h, read-out: GI
A549 [19] = experiment: Cytotoxicity against human A549 cells assessed as growth inhibition at 10 uM after 48 hrs by SRB assay; details: A549, 48 h, read-out: GI
MDA-MB-468 = experiment: Cytotoxicity against human MDA-MB-468 cells assessed as growth inhibition at 10 uM after 48 hrs by SRB assay; details: MDA-MB-468, 48 h, read-out: GI
MDA-MB-231 = experiment: Cytotoxicity against human MDA-MB-231 cells assessed as growth inhibition at 10 uM after 48 hrs by SRB assay; details: MDA-MB-231, 48 h, read-out: GI
HCT-15 = experiment: Cytotoxicity against human HCT15 cells assessed as growth inhibition at 10 uM after 48 hrs by SRB assay; details: HCT-15, 48 h, read-out: GI
RXF 393 = experiment: Cytotoxicity against human RXF393 cells assessed as growth inhibition at 10 uM after 48 hrs by SRB assay; details: RXF 393, 48 h, read-out: GI
KM12 = experiment: Cytotoxicity against human KM12 cells assessed as growth inhibition at 10 uM after 48 hrs by SRB assay; details: KM12, 48 h, read-out: GI
CCRF-CEM = experiment: Cytotoxicity against human CCRF-CEM cells assessed as growth inhibition at 10 uM after 48 hrs by SRB assay; details: read-out: GI
HT-29 = experiment: Cytotoxicity against human HT-29 cells assessed as growth inhibition at 10 uM after 48 hrs by SRB assay; details: HT-29, 48 h, read-out: GI
SR = experiment: Cytotoxicity against human SR cells assessed as growth inhibition at 10 uM after 48 hrs by SRB assay; details: read-out: GI
SK-MEL-2 = experiment: Cytotoxicity against human SK-MEL-2 cells assessed as growth inhibition at 10 uM after 48 hrs by SRB assay; details: SK-MEL-2, 48 h, read-out: GI
U-251 = experiment: Cytotoxicity against human U251 cells assessed as growth inhibition at 10 uM after 48 hrs by SRB assay; details: U-251, 48 h, read-out: GI
MCF7 = experiment: Cytotoxicity against human MCF7 cells assessed as growth inhibition at 10 uM after 48 hrs by SRB assay; details: MCF7, 48 h, read-out: GI
CAKI-1 = experiment: Cytotoxicity against human Caki1 cells assessed as growth inhibition at 10 uM after 48 hrs by SRB assay; details: CAKI-1, 48 h, read-out: GI

Compound `C=CCn1c(C)nc2ccc(Nc3nc(Nc4ccc5nc(C)n(CC=C)c5c4)c4ccccc4n3)cc21` has an inhibition of growth at 10 µM (NCI-H226) of 30%, an inhibition of growth at 10 µM (NCI-H23) of 50% and a GI50 [1] of 1.57 µM. The TGI [1] was 3.03 µM, the growth at 1 µM (A549 [2]) was 93% and the GI50 (A549 [3]) was 1.72 µM. For the same compound, the TGI (A549 [3]) was 3.22 µM, the growth at 0.1 µM (A549 [4]) was 101% and the inhibition of growth at 10 µM [5] was 40%. The inhibition of growth at 10 µM (BT-549) was 30%, the growth at 0.1 µM [6] was 92% and the growth at 1 µM [7] was 84%. The growth at 100 µM [8] was -49%, the growth at 100 µM (A549 [9]) was -14% and the growth at 0.01 µM (A549 [10]) was 99%. The growth at 0.01 µM [11] was 90%.

Work on `C=CCn1c(C)nc2cc(Nc3nc(Nc4ccc5nc(C)n(CC=C)c5c4)c4ccccc4n3)ccc21` yielded a growth at 1 µM (SNB-75 [12]) of 18%, a growth at 0.01 µM (SNB-75 [13]) of 84% and a growth at 100 µM (SNB-75 [14]) of -61%. The growth at 0.1 µM (SNB-75 [15]) was 93%.

Work on `C=CCn1c(C)nc2ccc(Nc3nc(Nc4ccc(F)cc4)nc4ccccc34)cc21` yielded an inhibition of growth at 10 µM (NCI-H23) of 40%, an inhibition of growth at 10 µM [16] of 50% and a GI50 [1] of 13.1 µM. It also gave an LC50 (concentration killing 50% of cells) [1] of 68.3 µM, a TGI [1] of 29.9 µM and an inhibition of growth at 10 µM (HCT-116) of 70%. For the same compound, the inhibition of growth at 10 µM [17] was 40%, the growth at 1 µM (A549 [2]) was 89% and the inhibition of growth at 10 µM (SK-MEL-5) was 50%. For the same compound, the inhibition of growth at 10 µM (SW-620) was 50%, the inhibition of growth at 10 µM (SF-295) was 50% and the inhibition of growth at 10 µM (K562) was 70%. The GI50 (A549 [3]) was 4.18 µM, the LC50 (A549 [3]) was over 100 µM and the TGI (A549 [3]) was 22.2 µM. The inhibition of growth at 10 µM [18] was 50%, the growth at 1 µM (SNB-75 [12]) was 76% and the growth at 0.1 µM (A549 [4]) was 97%. For the same compound, the inhibition of growth at 10 µM [5] was 50%, the growth at 0.01 µM (SNB-75 [13]) was 76% and the inhibition of growth at 10 µM (MDA-MB-435) was 40%. The inhibition of growth at 10 µM (BT-549) was 40%, the inhibition of growth at 10 µM (A549 [19]) was 40% and the inhibition of growth at 10 µM (MDA-MB-468) was 50%. The growth at 0.1 µM [6] was 98%, the inhibition of growth at 10 µM (MDA-MB-231) was 30% and the inhibition of growth at 10 µM (HCT-15) was 50%. The inhibition of growth at 10 µM (RXF 393) was 30%, the inhibition of growth at 10 µM (KM12) was 50% and the growth at 1 µM [7] was 92%. It also gave a growth at 100 µM (SNB-75 [14]) of -57%, a growth at 0.1 µM (SNB-75 [15]) of 80% and a growth at 100 µM [8] of -73%. The inhibition of growth at 10 µM (CCRF-CEM) was 70%, the inhibition of growth at 10 µM (HT-29) was 70% and the growth at 100 µM (A549 [9]) was -49%. For the same compound, the inhibition of growth at 10 µM (SR) was 70%, the growth at 0.01 µM (A549 [10]) was 94% and the inhibition of growth at 10 µM (SK-MEL-2) was 40%. For the same compound, the inhibition of growth at 10 µM (U-251) was 40%, the growth at 0.01 µM [11] was 98% and the inhibition of growth at 10 µM (MCF7) was 70%. For the same compound, the inhibition of growth at 10 µM (CAKI-1) was 40%.

Compound `C=CCn1c(C)nc2cc(Nc3nc(NCCO)nc4ccccc34)ccc21` has an inhibition of growth at 10 µM [16] of 30%, an inhibition of growth at 10 µM (HCT-116) of 30% and an inhibition of growth at 10 µM (SK-MEL-5) of 30%. It also gave an inhibition of growth at 10 µM (SW-620) of 30%, an inhibition of growth at 10 µM (K562) of 30% and an inhibition of growth at 10 µM [18] of 30%. The inhibition of growth at 10 µM (MDA-MB-468) was 40%, the inhibition of growth at 10 µM (MDA-MB-231) was 30% and the inhibition of growth at 10 µM (KM12) was 30%. For the same compound, the inhibition of growth at 10 µM (HT-29) was 30%, the inhibition of growth at 10 µM (SR) was 30% and the inhibition of growth at 10 µM (MCF7) was 30%.

For `C=CCn1c(C)nc2ccc(Nc3nc(Sc4ccc(N)cc4)nc4ccccc34)cc21`, the inhibition of growth at 10 µM (CCRF-CEM) was 30%.
